According to patent US20050132438A1, “Novel monocotylednous plant genes and uses thereof” (priority 2000, published 2005):

Tested on: wheat NIM1 homologue mRNA transcripts
Assay: RNA gel blot of wheat RNA probed with the KL1/KL2 PCR product of the wheat NIM1 homologue
Format: in vivo
Settings: polyA+ RNA from leaf tissue of young wheat plants, BTH-treated for 24 h
Excerpt: The PCR product from wheat genomic DNA that is obtained with PCR primers KL1 and KL2 (SEQ ID NO:3 and SEQ ID NO:4, respectively) is used to probe gel blots of wheat RNA. […] The smaller transcript corresponds to the size detected in total RNA. […] The wheat “NIM loop”-described above is also used as a probe.

With `CSC(=O)c1cccc2nnsc12` [BTH, benzo(1,2,3)thiadiazole-7-carbothioic acid S-methyl ester] the “abundance of the two NIM1 homologue transcripts, BTH-treated versus untreated plants” value was “equal abundance”.
